pEC50, pIC50: −log10 of the molar value. In brackets after ≈: the same amount, converted by molar mass.
Experiments:
[1] = Kinetic solubility of compound in PBS at pH 7.4 incubated for 24 hrs by UPLC-UV analysis; type: physicochemical; settings: read-out: Kinetic_solubility
[2] = AUCinfinity in Beagle dog at 10 mg/kg,po measured at 0.083 to 24 hrs post administration by LC-MS/MS analysis; type: ADME, organism-based, Canis lupus familiaris; settings: in vivo, time 0.083-24 hrs
[3] = Cardiotoxicity in Langendorff-perfused New Zealand White rabbit heart assessed as decrease in left ventricular contractility at 10 uM incubated for 45 mins by ECG analysis; type: toxicity, tissue-based, Oryctolagus cuniculus; parameters: scale not given: the % may be the effect or the level left; settings: 0.75 h
[4] = Half life in Beagle dog at 10 mg/kg,po measured at 0.083 to 24 hrs post administration by LC-MS/MS analysis; type: ADME, organism-based, Canis lupus familiaris; settings: in vivo, time 0.083-24 hrs
[5] = Half life in Beagle dog at 2 mg/kg,iv measured at 0.083 to 24 hrs post administration by LC-MS/MS analysis; type: ADME, organism-based, Canis lupus familiaris; settings: in vivo, time 0.083-24 hrs; for half-life: Beagle
[6] = Cmax in Beagle dog at 10 mg/kg,po measured at 0.083 to 24 hrs post administration by LC-MS/MS analysis; type: ADME, organism-based, Canis lupus familiaris; settings: in vivo, time 0.083-24 hrs
[7] = Oral bioavailability in Beagle dog at 10 mg/kg measured at 0.083 to 24 hrs by LC-MS/MS analysis; type: ADME, organism-based, Canis lupus familiaris; settings: in vivo, time 0.083-24 hrs
Hepatitis B virus = assay: Antiviral activity against HBV infected in human HepG2.2.15 cells assessed as inhibition of HBsAg level incubated for 6 days by microplate-based chemiluminescence immunoassay; type: functional, organism-based; settings: HepG2 2.2.15, 144 h
[8] = Half life in CD-1 mouse at 10 mg/kg,po measured at 0.083 to 24 hrs post administration by LC-MS/MS analysis; type: ADME, organism-based; settings: in vivo, time 0.083-24 hrs
[9] = AUCinfinity in Sprague-Dawley rat at 10 mg/kg,po measured at 0.083 to 24 hrs post administration by LC-MS/MS analysis; type: ADME, organism-based; settings: in vivo, time 0.083-24 hrs; for AUC(0-inf): Sprague-Dawley
[10] = Apparent volume of distribution at steady state in Beagle dog at 2 mg/kg,iv measured at 0.083 to 24 hrs post administration by LC-MS/MS analysis; type: ADME, organism-based, Canis lupus familiaris; settings: in vivo, time 0.083-24 hrs; for Vd: Beagle, read-out: Vdss(app)
[11] = Clearance in human liver microsomes at 0.3 uM pre-incubated for 10 mins followed by NADPH addition incubated for 60 mins by LC-MS/MS analysis; type: ADME, Microsome; settings: time 70 min, read-out: CLH
Cytochrome P450 2C19 = Cytochrome P450 2C19 (Homo sapiens, UniProt P33261); assay: Reversible inhibition of CYP2C19 in human liver microsomes using S-mephenytoin as substrate pre-incubated for 30 mins followed by NADPH addition and measured after 10 mins by LC-MS/MS analysis; type: ADME, Microsome
Cytochrome P450 2C19, sequence (P33261 whole entry): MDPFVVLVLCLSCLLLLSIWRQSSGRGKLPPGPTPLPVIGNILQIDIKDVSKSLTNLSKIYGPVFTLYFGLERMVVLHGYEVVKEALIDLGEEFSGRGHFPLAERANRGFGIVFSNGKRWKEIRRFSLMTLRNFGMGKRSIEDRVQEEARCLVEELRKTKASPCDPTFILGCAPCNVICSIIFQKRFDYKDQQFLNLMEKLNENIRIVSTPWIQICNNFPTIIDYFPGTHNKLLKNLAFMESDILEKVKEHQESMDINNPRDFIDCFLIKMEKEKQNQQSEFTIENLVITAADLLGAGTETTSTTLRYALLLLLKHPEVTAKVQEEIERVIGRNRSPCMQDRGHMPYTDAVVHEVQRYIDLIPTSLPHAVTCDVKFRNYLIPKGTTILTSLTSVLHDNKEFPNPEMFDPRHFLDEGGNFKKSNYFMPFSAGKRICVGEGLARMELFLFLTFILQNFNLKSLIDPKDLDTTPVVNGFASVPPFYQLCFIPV

[12] = Oral bioavailability in CD-1 mouse at 10 mg/kg measured at 0.083 to 24 hrs by LC-MS/MS analysis; type: ADME, organism-based; settings: in vivo, time 0.083-24 hrs
[13] = Half life in Sprague-Dawley rat at 10 mg/kg,po measured at 0.083 to 24 hrs post administration by LC-MS/MS analysis; type: ADME, organism-based; settings: Sprague-Dawley, in vivo, time 0.083-24 hrs
[14] = Cmax in Beagle dog at 2 mg/kg,iv measured at 0.083 to 24 hrs post administration by LC-MS/MS analysis; type: ADME, organism-based, Canis lupus familiaris; settings: in vivo, time 0.083-24 hrs
[15] = Protein binding in human plasma assessed as fraction unbound at 2 uM incubated for 6 hrs by equilibrium dialysis based LC-MS/MS analysis; type: ADME, cell-free
[16] = Oral bioavailability in Sprague-Dawley rat at 10 mg/kg measured at 0.083 to 24 hrs by LC-MS/MS analysis; type: ADME, organism-based; settings: in vivo, time 0.083-24 hrs; for bioavailability: Sprague-Dawley
Cytochrome P450 1A2 = biological target: T1, Cytochrome P450 1A2 (Homo sapiens, UniProt P05177); assay: Reversible inhibition of CYP1A2 in human liver microsomes using phenacetin as substrate pre-incubated for 30 mins followed by NADPH addition and measured after 10 mins by LC-MS/MS analysis; type: ADME, Microsome
T1 sequence (P05177 whole entry): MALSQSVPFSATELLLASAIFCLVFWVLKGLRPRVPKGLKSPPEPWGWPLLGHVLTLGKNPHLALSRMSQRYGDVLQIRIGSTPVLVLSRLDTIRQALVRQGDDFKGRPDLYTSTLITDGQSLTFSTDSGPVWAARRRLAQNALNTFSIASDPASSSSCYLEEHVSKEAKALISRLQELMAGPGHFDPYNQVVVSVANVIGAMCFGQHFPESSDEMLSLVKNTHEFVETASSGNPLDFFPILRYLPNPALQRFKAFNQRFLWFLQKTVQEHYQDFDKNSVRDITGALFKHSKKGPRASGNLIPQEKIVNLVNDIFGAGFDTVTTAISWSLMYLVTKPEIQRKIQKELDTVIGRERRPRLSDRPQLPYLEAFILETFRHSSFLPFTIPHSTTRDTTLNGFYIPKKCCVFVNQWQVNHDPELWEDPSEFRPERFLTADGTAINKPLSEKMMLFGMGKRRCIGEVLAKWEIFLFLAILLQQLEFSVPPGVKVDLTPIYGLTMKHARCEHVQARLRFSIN

[17] = AUCinfinity in Beagle dog at 2 mg/kg,iv measured at 0.083 to 24 hrs post administration by LC-MS/MS analysis; type: ADME, organism-based, Canis lupus familiaris; settings: in vivo, time 0.083-24 hrs; for AUC(0-inf): Beagle
Cytochrome P450 2B6 = biological target: T2, Cytochrome P450 2B6 (Homo sapiens, UniProt P20813); assay: Reversible inhibition of CYP2B6 in human liver microsomes using bupropion as substrate pre-incubated for 30 mins followed by NADPH addition and measured after 10 mins by LC-MS/MS analysis; type: ADME, Microsome
T2 sequence (P20813 whole entry): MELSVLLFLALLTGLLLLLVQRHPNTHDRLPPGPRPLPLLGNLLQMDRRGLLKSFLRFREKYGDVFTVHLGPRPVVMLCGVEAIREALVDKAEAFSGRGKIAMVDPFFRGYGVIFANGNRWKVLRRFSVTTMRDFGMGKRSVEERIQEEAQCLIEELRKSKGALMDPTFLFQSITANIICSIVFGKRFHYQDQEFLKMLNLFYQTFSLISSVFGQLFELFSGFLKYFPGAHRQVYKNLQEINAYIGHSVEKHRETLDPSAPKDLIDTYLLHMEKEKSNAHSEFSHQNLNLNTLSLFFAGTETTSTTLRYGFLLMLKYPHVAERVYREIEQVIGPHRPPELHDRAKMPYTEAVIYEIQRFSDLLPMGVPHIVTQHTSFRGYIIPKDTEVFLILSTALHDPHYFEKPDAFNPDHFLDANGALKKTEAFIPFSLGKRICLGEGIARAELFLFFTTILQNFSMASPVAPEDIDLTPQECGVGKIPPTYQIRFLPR

[18] = AUCinfinity in CD-1 mouse at 10 mg/kg,po measured at 0.083 to 24 hrs post administration by LC-MS/MS analysis; type: ADME, organism-based; settings: in vivo, time 0.083-24 hrs
[19] = Clearance in CD-1 mouse at 2 mg/kg,iv measured at 0.083 to 24 hrs post administration by LC-MS/MS analysis; type: ADME, organism-based; settings: in vivo, time 0.083-24 hrs
[20] = Cmax in CD-1 mouse at 10 mg/kg,po measured at 0.083 to 24 hrs post administration by LC-MS/MS analysis; type: ADME, organism-based; settings: in vivo, time 0.083-24 hrs
[21] = Cardiotoxicity in Langendorff-perfused New Zealand White rabbit heart assessed as decrease in left ventricular pressure at 10 uM incubated for 45 mins by ECG analysis; type: toxicity, tissue-based, Oryctolagus cuniculus; parameters: scale not given: the % may be the effect or the level left; settings: 0.75 h

| SMILES | solubility kinetic at 24 h [1] [µM] | AUC(0-inf) [2] [ng·h/mL] | Activity [3] | half-life [4] [h] | Cmax [6] [ng/mL] | bioavailability [7] [%] | pEC50 (Hepatitis B virus) | half-life [8] [h] | microsomal CLint at 0.3 µM [11] [µL/min/mg] | pIC50 (Cytochrome P450 2C19) | bioavailability [12] [%] | half-life [13] [h] | Cmax [14] [ng/mL] | fraction unbound at 6 h, 2 µM [15] | pIC50 (Cytochrome P450 1A2) | pIC50 (Cytochrome P450 2B6) | AUC(0-inf) [18] [ng·h/mL] | clearance [19] [mL/min/kg] | Cmax [20] [ng/mL] | Activity [21] [%] | also measured |
| --- | --- | --- | --- | --- | --- | --- | --- | --- | --- | --- | --- | --- | --- | --- | --- | --- | --- | --- | --- | --- | --- |
| COCCCOc1cc2c(nc1OC)-c1cc(=O)c(C(=O)O)cn1[C@H](C(C)C)C2 | > 200 | 31500 | Non-Toxic | 2.8 | 6740 | 98 | 9.00 | 5.8 | 3 | < 4.60 | 99 | 3.4 | 2310 | 0.5 | < 4.60 | < 4.60 | 5680 | 30 | 1110 | 20 | half-life [5]: 2.3 h; AUC(0-inf) [9]: 14100 ng·h/mL; Vd [10]: 0.8 L/kg; bioavailability [16]: 80%; AUC(0-inf) [17]: 6410 ng·h/mL |
| COCCCOc1cc2c(cc1OC)-c1cc(=O)c(C(=O)O)cn1[C@H](C(C)C)C2 | 190 (≈ 76.3 µg/mL) | 13000 | 20% | 1.6 | 4030 | 110 | 8.92 | 2 | 2 | < 4.60 | 96 | 3.4 | 1500 | 0.44 | < 4.60 | < 4.60 | 6150 | 26 | 1840 | 20 | t1/2 ([5]; iv, 2 mg/kg): 1.5 h; AUC(0-inf) [9]: 6720 ng·h/mL; Vdss(app) ([10]; iv, 2 mg/kg): 1.7 L/kg; bioavailability [16]: 28%; AUC ([17]; iv, 2 mg/kg): 2362 ng·h/mL |
| COCCCOc1cc2c(cc1Cl)-c1cc(=O)c(C(=O)O)cn1[C@H](C(C)C)CO2 | > 200 | 10700 | 20% | 1.7 | 3130 | 63 | 7.92 | 1.2 | 5 | < 4.60 | 63 | 2.8 | 2060 | 0.14 | < 4.60 | < 4.60 | 5880 | 20 | 702 | 20 | half-life [5]: 1.4 h; AUC ([9]; po, 10 mg/kg): 10300 ng·h/mL; Vd [10]: 1 L/kg; F ([16]; po, 10 mg/kg): 14%; AUC(0-inf) [17]: 3370 ng·h/mL |

— ChEMBL document CHEMBL5537169, “Structure-Activity Relationships and Discovery of (S)-6-Isopropyl-2-methoxy-3-(3-methoxypropoxy)-10-oxo-5,10-dihydro-6H-pyrido[1,2-h][1,7]naphthyridine-9-carboxylic Acid (AB-452), a Novel Orally Available HBV RNA Destabilizer” (J Med Chem, 2024)
